These results are taken from patent US8680269B2, “Pesticidal compositions” (Dow AgroSciences, LLC., priority 2009, dated 2014).

Holding throughout (format): in vivo
The subject of test [1] is beet armyworm (BAW; Spodoptera exigua). In words: Insecticidal test for beet armyworm, 128-well diet tray assay. The conditions noted are these: 144 h, 50 μg/cm2 on artificial diet, second instar larvae, six days at 25° C. The protocol: (§1) Bioassays on beet armyworm (BAW; Spodoptera exigua: Lepidoptera) were conducted using a 128-well diet tray assay. Three to five second instar BAW larvae were placed in each well (3 mL) of the diet tray that had been previously filled with 1 mL of artificial diet to which 50 μg/cm^2 of the test compound (dissolved in 50 μL of 90:10 acetone-water mixture) had been applied (to each of eight wells) and then allowed to dry. Trays were covered with a clear self-adhesive cover, and held at 25° C., 14:10 light-dark for six days. Percent mortality was recorded for the larvae in each well; activity in the eight wells was then averaged.

Test [2] relates to corn earworm (CEW; Helicoverpa zea). Nature of the test: Insecticidal test for corn earworm, 128-well diet tray assay. The conditions noted are these: 144 h, 50 μg/cm2 on artificial diet, second instar larvae, six days at 25° C. The method, then:
as §1, with “corn earworm (CEW; Helicoverpa zea:” for “beet armyworm (BAW; Spodoptera exigua:”, “CEW” for “BAW”

The subject of test [3] is green peach aphid (Myzus persicae). Nature of the test: Insecticidal test for green peach aphid in foliar spray assay. The conditions noted are these: 72 h, 200 ppm foliar spray on cabbage seedlings, graded after three days, Abbott corrected % control, read-out: Mortality GPA 200 ppm. The method, then:
Cabbage seedlings grown in 3-inch pots, with 2-3 small (3-5 cm) true leaves, were used as test substrate. The seedlings were infested with 20-50 green peach aphids (wingless adult and nymph) one day prior to chemical application. Four pots with individual seedlings were used for each treatment. Compounds (2 mg) were dissolved in 2 mL of acetone/methanol (1:1) solvent, forming stock solutions of 1000 ppm. The stock solutions were diluted 5× with 0.025% Tween 20 in H2O to obtain the test solution at 200 ppm. A hand-held Devilbiss sprayer was used for spraying a solution to both sides of cabbage leaves until runoff. Reference plants (solvent check) were sprayed with the diluent only. Treated plants were held in a holding room for three days at approximately 25° C. and 40% relative humidity (RH) prior to grading. Evaluation was conducted by counting the number of live aphids per plant under a microscope. Insecticidal activity data, measured by using Abbott's correction formula, are presented in Table 2: Corrected % Control=100*(X−Y)/X • where X=No. of live aphids on solvent check plants • Y=No. of live aphids on treated plants

With `CS(=O)(=O)c1ccccc1NC(=S)N/N=C/c1ccc(-c2ncn(-c3ccc(OC(F)(F)F)cc3)n2)cc1` [Compound 52], the mortality at 50 µg/cm2 in test [1] and in test [2] was 50 to 100% in each case. For the same compound, the mortality at 200 ppm in test [3] is under 80%.

Regarding `CC(=O)N(C)c1ccc(NC(=S)N/N=C/c2ccc(-c3ncn(-c4ccc(OC(F)(F)F)cc4)n3)cc2)cc1` [Compound 40], the mortality at 50 µg/cm2 in test [1] and in test [2] was 50 to 100% in each case. In test [3], the mortality at 200 ppm was under 80%.

With `FC(F)(F)c1ccc(-n2cnc(-c3ccc(/C=N/NC(=S)NCCc4ccccn4)cc3)n2)cc1` [Compound 5], the mortality at 50 µg/cm2 in test [1] and in test [2] was 50 to 100% in each case. Also, the mortality at 200 ppm in test [3] is under 80%.

As for `CSc1ccccc1NC(=S)N/N=C/c1ccc(-c2ncn(-c3ccc(OC(F)(F)F)cc3)n2)cc1` [Compound 75], the mortality at 50 µg/cm2 in test [1] and in test [2] was 50 to 100% throughout. Moreover, the mortality at 200 ppm in test [3] was under 80%.

Take `Fc1ccccc1CNC(=S)N/N=C/c1ccc(-c2ncn(-c3ccc(OC(F)(F)F)cc3)n2)cc1` [Compound 22]: the mortality at 50 µg/cm2 in test [1] and in test [2] was 50 to 100% throughout. Further, the mortality at 200 ppm in test [3] was under 80%.

For `FC(F)(F)Oc1ccc(-n2cnc(-c3ccc(/C=N/NC(=S)Nc4ccccc4Cl)cc3)n2)cc1` [Compound 54], the mortality at 50 µg/cm2 in test [1] and in test [2] was under 50% each time. Moreover, the mortality at 200 ppm in test [3] is under 80%.

For the compound `N#Cc1ccccc1NC(=S)N/N=C/c1ccc(-c2ncn(-c3ccc(OC(F)(F)F)cc3)n2)cc1` [Compound 53], the mortality at 50 µg/cm2 in test [1] and in test [2] was 50 to 100% in each case. Besides, the mortality at 200 ppm in test [3] is under 80%.

On to `O=C(N/N=C/c1ccc(-c2ncn(-c3ccc(OC(F)(F)F)cc3)n2)cc1)Nc1c(Cl)cccc1Cl` [Compound 120], for which the mortality at 50 µg/cm2 in test [1] and in test [2] was 50 to 100% each time. Moreover, the mortality at 200 ppm in test [3] was under 80%.

With `COc1ccc(NC(=S)N/N=C/c2ccc(-c3ncn(-c4ccc(OC(F)(F)F)cc4)n3)cc2)c(OC)c1` [Compound 45], the mortality at 50 µg/cm2 in test [1] and in test [2] was 50 to 100% each time. For the same compound, the mortality at 200 ppm in test [3] was under 80%.

In the case of `C=CCNC(=S)N/N=C/c1ccc(-c2ncn(-c3ccc(OC(F)(F)F)cc3)n2)cc1` [Compound 12], the mortality at 50 µg/cm2 in test [1] and in test [2] was 50 to 100% throughout. Also, the mortality at 200 ppm in test [3] was under 80%.

With `CN(C)c1ccc(NC(=S)N/N=C/c2ccc(-c3ncn(-c4ccc(OC(F)(F)F)cc4)n3)cc2)c(C(F)(F)F)c1` [Compound 49], the mortality at 50 µg/cm2 in test [1] and in test [2] was 50 to 100% in each case. In addition, the mortality at 200 ppm in test [3] is under 80%.

For the compound `FC(F)(F)C(F)(F)Oc1ccc(-n2cnc(-c3ccc(/C=N/NC(=S)NCCc4ccccn4)cc3)n2)cc1` [Compound 9], the mortality at 50 µg/cm2 in test [1] and in test [2] was 50 to 100% throughout. For the same compound, the mortality at 200 ppm in test [3] is under 80%.

For the compound `Nc1ccc(NC(=S)N/N=C/c2ccc(-c3ncn(-c4ccc(OC(F)(F)F)cc4)n3)cc2)cc1` [Compound 81], the mortality at 50 µg/cm2 in test [1] and in test [2] was 50 to 100% throughout. Moreover, the mortality at 200 ppm in test [3] was under 80%.

As to `COc1cccc(OC)c1NC(=S)N/N=C/c1ccc(-c2ncn(-c3ccc(OC(F)(F)F)cc3)n2)cc1` [Compound 57], the mortality at 50 µg/cm2 in test [1] and in test [2] was 50 to 100% throughout. In test [3], the mortality at 200 ppm was under 80%.

Consider `FC(F)(F)Oc1ccc(-n2cnc(-c3ccc(/C=N/NC(=S)NC4CCCCC4)cc3)n2)cc1` [Compound 25], for which the mortality at 50 µg/cm2 in test [1] and in test [2] was 50 to 100% each time. Besides, the mortality at 200 ppm in test [3] is under 80%.

For the compound `COc1cc(C)c(NC(=S)N/N=C(\C)c2ccc(-c3ncn(-c4ccc(OC(F)(F)F)cc4)n3)cc2)c(C)c1` [Compound 125], the mortality at 50 µg/cm2 in test [1] and in test [2] was 50 to 100% each time. In addition, the mortality at 200 ppm in test [3] is under 80%.

`COc1ccc(NC(=S)N/N=C/c2ccc(-c3ncn(-c4ccc(OC(F)(F)F)cc4)n3)cc2)c(C)c1` [Compound 46]: the mortality at 50 µg/cm2 in test [1] and in test [2] was 50 to 100% each time. In addition, the mortality at 200 ppm in test [3] was under 80%.

Turning to `CN(C)c1ccc(NC(=S)N/N=C/c2ccc(-c3ncn(-c4ccc(OC(F)(F)F)cc4)n3)cc2)cc1` [Compound 1], the mortality at 50 µg/cm2 in test [1] and in test [2] was 50 to 100% in each case. Further, the mortality at 200 ppm in test [3] is under 80%.

As to `COc1ccc(NC(=S)N/N=C/c2ccc(-c3ncn(-c4ccc(OC(F)(F)F)cc4)n3)cc2)c(F)c1` [Compound 50], the mortality at 50 µg/cm2 in test [1] and in test [2] was 50 to 100% in each case. Besides, in test [3], the mortality at 200 ppm was under 80%.

With `FC(F)(F)Oc1ccc(-n2cnc(-c3ccc(/C=N/NC(=S)Nc4ccc(Cl)cn4)cc3)n2)cc1` [Compound 59], the mortality at 50 µg/cm2 in test [1] and in test [2] was under 50% throughout. In test [3], the mortality at 200 ppm was under 80%.

For `FC(F)(F)Oc1ccc(-n2cnc(-c3ccc(/C=N/NC(=S)NCc4ccco4)cc3)n2)cc1` [Compound 27], the mortality at 50 µg/cm2 in test [1] and in test [2] was 50 to 100% each time. The mortality at 200 ppm in test [3] is under 80%.

On to `CN(C)C(=S)N/N=C/c1ccc(-c2ncn(-c3ccc(OC(F)(F)F)cc3)n2)cc1` [Compound 11], for which the mortality at 50 µg/cm2 in test [1] and in test [2] was 50 to 100% throughout. Besides, the mortality at 200 ppm in test [3] was under 80%.

With `COc1ccc(NC(=S)N/N=C/c2ccc(-c3ncn(-c4ccc(OC(F)(F)F)cc4)n3)cc2)cc1` [Compound 28], the mortality at 50 µg/cm2 in test [1] and in test [2] was 50 to 100% throughout. Further, the mortality at 200 ppm in test [3] was under 80%.

Take `CNc1ccc(NC(=S)N/N=C/c2ccc(-c3ncn(-c4ccc(OC(F)(F)F)cc4)n3)cc2)cc1` [Compound 42]: the mortality at 50 µg/cm2 in test [1] and in test [2] was 50 to 100% in each case. The mortality at 200 ppm in test [3] is under 80%.

On to `FC(F)(F)Oc1ccc(-n2cnc(-c3ccc(/C=N/NC(=S)Nc4ccc(C(F)(F)F)cc4)cc3)n2)cc1` [Compound 32], for which the mortality at 50 µg/cm2 in test [1] and in test [2] was under 50% each time. Moreover, the mortality at 200 ppm in test [3] is under 80%.

As to `COc1cc(C)c(NC(=S)N/N=C/c2ccc(C3=NN(c4ccc(OC(F)(F)F)cc4)C(C(N)=O)C3)cc2)c(C)c1` (stereo not drawn) [Compound 133], the mortality at 50 µg/cm2 in test [1] and in test [2] was 50 to 100% in each case. In test [3], the mortality at 200 ppm is under 80%.

For `COc1cc(C)c(NC(=S)N/N=C/c2ccc(-c3ncn(-c4ccc(C(F)(F)F)cc4)n3)cc2)c(C)c1` [Compound 127], the mortality at 50 µg/cm2 in test [1] and in test [2] was 50 to 100% throughout. In addition, the mortality at 200 ppm in test [3] was under 80%.

With `COc1ccc(NC(=S)N/N=C(\C)c2ccc(-c3ncn(-c4ccc(OC(F)(F)F)cc4)n3)cc2)c(C)c1` [Compound 109], the mortality at 50 µg/cm2 in test [1] and in test [2] was 50 to 100% each time. In test [3], the mortality at 200 ppm is under 80%.

Consider `CN(C)C(=S)N/N=C/c1ccc(-c2ncn(-c3ccc(C(F)(F)F)cc3)n2)cc1` [Compound 8], for which the mortality at 50 µg/cm2 in test [1] and in test [2] was 50 to 100% each time. Further, the mortality at 200 ppm in test [3] is under 80%.

In the case of `FC(F)(F)Oc1ccc(-n2cnc(-c3ccc(/C=N/NC(=S)Nc4ccc(Cl)cc4Cl)cc3)n2)cc1` [Compound 55], the mortality at 50 µg/cm2 in test [1] and in test [2] was under 50% each time. Also, the mortality at 200 ppm in test [3] is under 80%.

As for `CN(C)c1ccc(CNC(=S)N/N=C/c2ccc(-c3ncn(-c4ccc(OC(F)(F)F)cc4)n3)cc2)cc1` [Compound 37], the mortality at 50 µg/cm2 in test [1] and in test [2] was 50 to 100% each time. In addition, the mortality at 200 ppm in test [3] was under 80%.

For the compound `COc1ccc(NC(=S)N/N=C/c2ccc(-n3cnc(-c4ccc(C(F)(F)F)cc4)c3)cc2)cc1` [Compound 69], the mortality at 50 µg/cm2 in test [1] and in test [2] was 50 to 100% throughout. Moreover, the mortality at 200 ppm in test [3] is under 80%.

With `CN(C)c1ncc(NC(=S)N/N=C/c2ccc(-c3ncn(-c4ccc(OC(F)(F)F)cc4)n3)cc2)cn1` [Compound 43], the mortality at 50 µg/cm2 in test [1] and in test [2] was 50 to 100% in each case. Moreover, in test [3], the mortality at 200 ppm is under 80%.
